Test results reported in patent US8063059B2, “Use of compositions containing kappa-opioid receptor antagonists for the treatment of dissociative disorders” (Emodys GmbH, priority 2006, dated 2011).

What was measured:
[1] = system: patient diagnosed with emotionally unstable personality disorder; experiment: Medical Application Example 3: buprenorphine in patients with emotionally unstable personality disorder; assay type: in vivo, human
Experimental: In medical application examples 3 and 4 buprenorphine, alone or in conjunction with a kappa-opioid receptor antagonist, is used for patients diagnosed with emotionally unstable personality disorder as a possibility for treating the personality disorder and reducing the associated social, somatic and psychiatric consequences.
Buprenorphine was administered as a mucoadhesive sachet with an active ingredient content of 12 mg to a patient diagnosed with emotionally unstable personality disorder.

[2] = system: patient diagnosed with post traumatic stress disorders; experiment: Medical Application Example 1: buprenorphine in a patient with post traumatic stress disorders; assay type: in vivo, human; details: one patient
Experimental: Buprenorphine in the form of a tablet with an active ingredient content of 12 mg was administered sublingually to a patient diagnosed with post traumatic stress disorders with the corresponding psychiatric symptoms.

[3] = one year following the start of treatment

2-(N-cyclopropylmethyl-4,5alpha-epoxy-3-hydroxy-6-methoxy-6,14-endoethanomorphinan-7alpha-yl)-3,3-dimethyl-2-butanol [Buprenorphine]
self-injuries after one year ([1]; one patient, daily ingestion of 12 mg, after one year): complete lack of self-injuries | self-injuring behaviour ([1]; one patient, mucoadhesive sachet, 12 mg): complete remission | frequency of self-cutting ([1]; two other patients): significant reduction | flashback symptoms and daily life intrusions [2, 3]: significant improvement | lethargy and emotional swings, intrusive dissociation sensations (patient-indicated) [2, 3]: clear subjective improvement | occurrence of flashback situations ([2]; sublingual tablet, daily dosage increased from 12 mg to 16 mg): decrease significantly
